According to patent US9605027B2, “Polypeptides that bound to IL-23 receptor and inhibit binding of IL-23 and cell signaling thereof” (Medical Diagnostic Laboratories, LLC, priority 2011, dated 2017):
“Also recorded” adds a separate entry of the source. Peptide text beside a SMILES is read from it.

Biological target: T1, Recombinant human IL-23R-Fc (Homo sapiens, UniProt Q5VWK5)
T1 construct: has the protein portion between the 24 amino acid residue to 353 amino acid residue; purchased R&D Systems 1400-IR-050
T1 sequence (Q5VWK5 24-353): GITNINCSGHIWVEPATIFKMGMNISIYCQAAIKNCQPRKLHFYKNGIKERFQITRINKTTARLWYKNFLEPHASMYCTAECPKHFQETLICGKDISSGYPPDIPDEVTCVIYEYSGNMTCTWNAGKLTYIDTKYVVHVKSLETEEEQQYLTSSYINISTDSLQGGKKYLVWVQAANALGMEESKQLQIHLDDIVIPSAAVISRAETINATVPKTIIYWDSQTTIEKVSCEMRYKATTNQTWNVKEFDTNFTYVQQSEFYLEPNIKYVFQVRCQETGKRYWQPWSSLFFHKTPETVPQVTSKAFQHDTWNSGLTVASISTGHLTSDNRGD
Experiment: Competitive ELISA, IL-23 binding to IL-23R
Details: for inhibition of IL-23 binding to its receptor by modified polypeptides, Competitive ELISA: procedure of Example 6, compared with parent polypeptide
Protocol: The novel polypeptides were tested for their ability to inhibit IL-23 using a Competitive ELISA. In such an assay, IL-23R/Fc fusion protein was immobilized on a solid support. In this instance, the solid support was a 96-well plate, but the support may be any support that is typically used for an ELISA. The novel polypeptide and IL-23 were allowed to compete for binding to the immobilized IL-23R/Fc fusion protein. IL-23 that bound to IL-23R-Fc was detected using biotinylated anti-p40 antibody. The bound anti-p40 antibody was detected using streptavidin-horseradish peroxidase (HRP) and a tetramethylbenzidine (TMB) substrate was added to measure peroxidase activity. The color was measured at optical density (OD) 450nm. The color intensity was directly proportional to the amount of the bound IL-23 protein. […] (See, FIG. 16.)
(§1) FIG. 12 is a schematic depiction of the Competitive ELISA. Recombinant human IL-23R-Fc (2 μg/ml) was coated onto microtiter plates as a capture reagent. IL-23 and polypeptides were added to compete for binding to the immobilized IL-23R-Fc. IL-23 that bound to IL-23R-Fc was detected using biotinylated anti-p40 antibody (1:250). The bound anti-p40 antibody was detected using streptavidin-horseradish peroxidase (HRP) (1:500) and 100 μl/well of a tetramethylbenzidine (TMB) substrate was added to measure peroxidase activity. The color was measured at optical density (OD) 450nm. (See, FIG. 12). The color intensity was directly proportional to the amount of the bound IL-23 protein.
as §1, with “Recombinant” for “FIG. 12 is a schematic depiction of the Competitive ELISA. Recombinant”, “IL-23R-Fc. 50 μg human IL-23 (Cat. No. HZ-1048) (Humanzyme, Chicago, Ill.) in the presence or absence of 100 μM peptides was added to the well and incubated at 4° C. overnight.” for “IL-23R-Fc.”, “450nm.” for “450nm. (See, FIG. 12).”

Compound: CSCC[C@@H]1NC(=O)[C@H](C)NC(=O)[C@@H](N)CSSC[C@@H](C(=O)O)NC(=O)[C@H](CCCNC(=N)N)NC(=O)CNC(=O)[C@H](Cc2ccc(O)cc2)NC(=O)[C@H](CC(C)C)NC(=O)[C@H](Cc2c[nH]c3ccccc23)NC(=O)[C@H](Cc2ccc(O)cc2)NC(=O)[C@H](CC(=O)O)NC(=O)[C@H](CCC(N)=O)NC(=O)[C@H](Cc2c[nH]c3ccccc23)NC(=O)[C@H]([C@@H](C)O)NC1=O [23.19]
- inhibition of IL-23 binding to its receptor by modified polypeptides, Competitive ELISA: equally effective

Compound: CSCC[C@@H]1NC(=O)[C@H](CCCCN)NC(=O)[C@H](C)NC(=O)[C@H](C)NC(=O)[C@H](CS)NC(=O)[C@H](CC(N)=O)NC(=O)[C@H](CCCCN)NC(=O)[C@H](CC(C)C)NC(=O)[C@H](Cc2c[nH]c3ccccc23)NC(=O)[C@H](Cc2ccc(O)cc2)NC(=O)[C@H](CC(=O)O)NC(=O)[C@H](C(C)C)NC(=O)[C@H](Cc2c[nH]c3ccccc23)NC(=O)[C@H]([C@@H](C)O)NC1=O [2HT AA] (cyclo(AAKMTWVDYWLKNC))
- IC50 (human IL-23 / IL-23R-Fc, read-out: IC50, cell-free competitive ELISA): 8.1 nM
- inhibition of IL-23 binding to its receptor by modified polypeptides, Competitive ELISA: did not abrogate the polypeptides' ability; also recorded: best inhibitory activity
